Each structure is given as a SMILES string.

The subject of one assay is BaF3-TEL-JAK3 cells. Nature of the assay: Proliferation inhibition of BaF3-TEL-JAK3 cells (Cell Titer-Glo, 72 h). In kind it is cell-based. To be noted: 72 h drug action, class key in μM. How it is done:
(§1) Experimental procedure: A certain number of cells in the logarithmic growth phase were inoculated in a 96-well plate and cultured at 37° C. before adding drugs. After 72 h of drug action, after the 96-well cell plate was equilibrated to room temperature, 40 μL of Cell Titer-Glo® reagent was added to each well; each plate was then shaken for 2 min and allowed to stand for 10 min, the chemiluminescent signal was detected with an MD SpectraMax Paradigm microplate reader. Data analysis: The formula is as follows: […]
(§2) Max signal: DMSO signal; Min signal: medium signal, IC50 was calculated using GraphPad Prism 5.
(In ATP-based viability assays light output follows the ATP content of the culture.)

A further assay deals with Daudi cells. Description: Proliferation inhibition of Daudi cells (Cell Titer-Glo, 72 h). It is filed as cell-based. Particulars: 72 h drug action, class key in μM. How it is done:
as §1, §2

For the next assay, the target named is JAK3 (Homo sapiens (Human), UniProt P52333). Description: JAK3 kinase inhibitory activity experiment (Caliper EZ reader conversion rate). It is filed as biochemical. To be noted: for IC50: in vitro kinase assay, 30 min incubation, class key in μM; for inhibitory activity on JAK3 (in words): summary of Table 1. The method, then: (§3) Experimental method: The 384-well plate was divided into compound wells (starting at 10 μM, diluted three times to produce 10 concentrations), positive control wells and negative control wells; kinase solution was added to compound wells and positive control wells, and 1×kinase buffer was added to negative control wells; the solution is next centrifuged for 30 seconds and incubated at room temperature for 10 min. Add 15 μL of the mixed solution of ATP and substrate, shake and mix well after centrifugation and incubate at room temperature (30 min for JAK3, 20 min for BTK). Add stop detection solution to stop the reaction, and read the conversion rate with Caliper EZ reader, Data analysis: The formula is as follows: […]
Sequence of JAK3 (P52333 whole entry): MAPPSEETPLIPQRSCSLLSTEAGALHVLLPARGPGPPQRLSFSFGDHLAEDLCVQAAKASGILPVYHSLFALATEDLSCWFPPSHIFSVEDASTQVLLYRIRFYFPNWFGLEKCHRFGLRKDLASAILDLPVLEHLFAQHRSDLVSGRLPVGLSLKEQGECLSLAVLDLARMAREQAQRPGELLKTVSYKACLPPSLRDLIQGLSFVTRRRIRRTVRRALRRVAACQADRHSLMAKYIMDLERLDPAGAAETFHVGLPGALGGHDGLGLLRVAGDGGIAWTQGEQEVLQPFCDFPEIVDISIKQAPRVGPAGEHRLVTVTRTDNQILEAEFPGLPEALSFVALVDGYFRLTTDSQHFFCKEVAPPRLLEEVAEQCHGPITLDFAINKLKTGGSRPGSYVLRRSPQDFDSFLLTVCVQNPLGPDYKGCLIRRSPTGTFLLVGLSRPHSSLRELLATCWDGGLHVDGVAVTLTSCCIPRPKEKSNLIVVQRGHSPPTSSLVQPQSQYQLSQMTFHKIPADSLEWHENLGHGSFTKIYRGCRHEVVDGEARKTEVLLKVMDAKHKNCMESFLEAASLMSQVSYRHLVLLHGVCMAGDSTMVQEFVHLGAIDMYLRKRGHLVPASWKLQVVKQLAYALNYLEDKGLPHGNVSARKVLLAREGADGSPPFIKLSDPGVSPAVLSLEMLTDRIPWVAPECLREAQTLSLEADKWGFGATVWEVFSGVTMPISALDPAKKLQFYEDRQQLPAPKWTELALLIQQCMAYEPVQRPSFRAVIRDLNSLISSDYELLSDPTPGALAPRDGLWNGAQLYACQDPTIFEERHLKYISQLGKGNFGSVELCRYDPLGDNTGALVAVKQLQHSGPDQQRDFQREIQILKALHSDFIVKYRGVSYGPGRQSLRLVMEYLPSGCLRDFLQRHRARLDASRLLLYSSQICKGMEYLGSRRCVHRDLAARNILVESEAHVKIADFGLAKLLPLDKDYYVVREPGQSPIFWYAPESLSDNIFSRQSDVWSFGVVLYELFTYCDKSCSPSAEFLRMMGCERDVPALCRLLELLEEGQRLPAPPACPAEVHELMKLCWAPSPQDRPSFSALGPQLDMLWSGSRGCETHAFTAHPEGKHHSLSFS
(§4) where Conversion %_sample is the conversion rate reading of the sample Conversion %_min is the average value of the negative control wells representing the conversion rate reading of the wells without enzyme addition; and Conversion %_max is the average value of the positive control wells representing the conversion rate reading of the wells without adding the compound. Fit the dose-response curve: Taking the log value of the concentration as the X-axis, and the percentage inhibition rate as the Y-axis, the dose-response curve was fitted using the log (inhibitor) vs. response-Variable slope of the software GraphPad Prism 5, so as to obtain the IC50 value of each compound on the enzyme activity.

The target of the next assay is BTK (Homo sapiens (Human), UniProt Q06187). Nature of the assay: BTK kinase inhibitory activity experiment (Caliper EZ reader conversion rate). To be noted: for IC50: in vitro kinase assay, 20 min incubation, class key in μM; for inhibitory activity on BTK (in words): summary of Table 1. In kind it is biochemical. The method, then: as §3, §4
Sequence of BTK (Q06187 whole entry): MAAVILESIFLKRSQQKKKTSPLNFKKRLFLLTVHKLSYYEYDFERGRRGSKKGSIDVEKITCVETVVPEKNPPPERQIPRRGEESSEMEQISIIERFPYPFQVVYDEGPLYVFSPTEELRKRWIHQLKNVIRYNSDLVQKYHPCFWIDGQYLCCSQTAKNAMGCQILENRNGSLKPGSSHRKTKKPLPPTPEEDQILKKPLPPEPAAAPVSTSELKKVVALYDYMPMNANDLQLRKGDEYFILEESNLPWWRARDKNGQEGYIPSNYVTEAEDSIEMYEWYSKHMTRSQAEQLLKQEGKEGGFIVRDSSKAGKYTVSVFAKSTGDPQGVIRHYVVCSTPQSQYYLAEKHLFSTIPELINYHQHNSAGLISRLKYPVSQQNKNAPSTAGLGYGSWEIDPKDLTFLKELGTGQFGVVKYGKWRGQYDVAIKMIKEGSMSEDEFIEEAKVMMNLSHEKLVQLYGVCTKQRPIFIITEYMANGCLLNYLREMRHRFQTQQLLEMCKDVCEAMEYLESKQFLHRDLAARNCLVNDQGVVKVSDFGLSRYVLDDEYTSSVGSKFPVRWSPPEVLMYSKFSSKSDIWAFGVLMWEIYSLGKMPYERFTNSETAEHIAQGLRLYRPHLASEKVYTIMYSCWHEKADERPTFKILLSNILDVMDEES

With `C=CC(=O)N1CCC[C@@H](n2nc(-c3ccc(NC(=O)c4ccc(Cl)cc4)c4c3OCO4)c3c(N)ncnc32)C1` [I-7, (R)-N-(7-(1-(1-acryloylpiperidin-3)-4-amino-1H-pyrazolo[3,4d]pyrimidin-3-)benzo[d][1,3]dioxoheterocyclopenten-4)-4-chlorobenzamide], the IC50 in the assay with BaF3-TEL-JAK3 cells was 0.5 to 1 µM; in the assay on Daudi cells, 0.5 to 1 µM; against JAK3 it was 0.001 to 0.05 µM; against BTK it was 0.001 to 0.05 µM. In addition, the “inhibitory activity on JAK3 (in words)” value on JAK3 is “excellent inhibitory activity”. In addition, the “inhibitory activity on BTK (in words)” value on BTK is listed as “excellent inhibitory activity”.
With `C=CC(=O)N1CCC[C@@H](n2nc(-c3ccc(NC(=O)c4ccc5ccccc5c4)c4c3OCO4)c3c(N)ncnc32)C1` [I-18, (R)-N-(7-(1-(1-acryloylpiperidin-3)-4-amino-1H-pyrazolo[3,4-d]pyrimidin-3-)benzo[d][1,3]dioxoheterocyclopenten-4)-2-naphthalenecarboxamide], the 50% inhibitory concentration (IC50) with BaF3-TEL-JAK3 cells fell in the range of 0.5 to 1 µM; in the assay on Daudi cells it was 0.5 to 1 µM; against JAK3 it was 0.001 to 0.05 µM; on BTK it was 0.001 to 0.05 µM.
For `C=CC(=O)N1CCC[C@@H](n2nc(-c3ccc(NC(=O)c4ccccc4)c4c3OCO4)c3c(N)ncnc32)C1` [I-1, (R)-N-(7-(1-(1-acryloylpiperidin-3-yl)-4-amino-1H-pyrazolo[3,4-d]pyrimidin-3-)benzo[d][1,3]dioxoheterocyclopenten-4-)benzamide], the IC50 is 0.5 to 1 µM with BaF3-TEL-JAK3 cells, 0.5 to 1 µM with Daudi cells, 0.05 to 0.5 µM against JAK3 and 0.001 to 0.05 µM at BTK.
Consider `C=CC(=O)N1CCC[C@@H](n2nc(-c3ccc(NC(=O)c4cccc5ccccc45)c4c3OCO4)c3c(N)ncnc32)C1` [I-17, (R)-N-(7-(1-(1-acryloylpiperidin-3-yl)-4-amino-1H-pyrazolo[3,4-d]pyrimidin-3-)benzo[d][1,3]dioxoheterocyclopenten-4-)-1-naphthalenecarboxamide], for which the IC50 in the assay on BaF3-TEL-JAK3 cells was in the range of 0.5 to 1 µM; with Daudi cells, 0.5 to 1 µM; against JAK3, 0.001 to 0.05 µM; on BTK, 0.001 to 0.05 µM.
`C=CC(=O)N1CCC[C@@H](n2nc(-c3ccc(NC(=O)c4cccc5c4CCCC5)c4c3OCO4)c3c(N)ncnc32)C1` [I-20, (R)-N-(7-(1-(1-acryloylpiperidin-3-yl)-4-amino-1H-pyrazolo[3,4-d]pyrimidin-3-)benzo[d][1,3]dioxoheterocyclopenten-4-)-5,6,7,8-tetrahydronaphthalene-1-carboxamide]: the IC50 was in the range of 0.5 to 1 µM in the assay on BaF3-TEL-JAK3 cells, 0.5 to 1 µM in the assay on Daudi cells, 0.001 to 0.05 µM against JAK3 and 0.001 to 0.05 µM at BTK.
Regarding `C=CC(=O)N1CCC[C@@H](n2nc(-c3ccc(NC(=O)c4ccc(N(C)C)cc4)c4c3OCO4)c3c(N)ncnc32)C1` [I-13, (R)-N-(7-(1-(1-acryloylpiperidin-3)-4-amino-1H-pyrazolo[3,4-d]pyrimidin-3-)benzo[d][1,3]dioxoheterocyclopenten-4)-4-(dimethylamino)benzamide], the concentration for half-maximal inhibition (IC50) in the assay on BaF3-TEL-JAK3 cells fell in the range of 0.01 to 0.5 µM; in the assay with Daudi cells, 0.5 to 1 µM; on JAK3 it was 0.001 to 0.05 µM; against BTK, 0.001 to 0.05 µM.
Turning to `C=CC(=O)N1CCC[C@@H](n2nc(-c3ccc(NC(=O)c4ccc(-c5ccccc5)cc4)c4c3OCO4)c3c(N)ncnc32)C1` [I-24, (R)-N-(7-(1-(1-acryloylpiperidin-3-yl)-4-amino-1H-pyrazolo[3,4-d]pyrimidin-3-)benzo[d][1,3]dioxoheterocyclopenten-4)-[1,1′-Biphenyl]-4-carboxamide], the IC50 with BaF3-TEL-JAK3 cells lay within 0.01 to 0.5 µM; in the assay with Daudi cells it was 0.01 to 0.5 µM; at JAK3, 0.05 to 0.5 µM; on BTK, 0.001 to 0.05 µM.
As for `C=CC(=O)N1CCC[C@@H](n2nc(-c3ccc(NC(=O)c4cccc(Cl)c4)c4c3OCO4)c3c(N)ncnc32)C1` [I-6, (R)-N-(7-(1-(1-acryloylpiperidin-3)-4-amino-1H-pyrazolo[3,4-d]pyrimidin-3-)benzo[d][1,3]dioxoheterocyclopenten-4)-3-chlorobenzamide], the IC50 lay in the range of 0.5 to 1 µM in the assay on BaF3-TEL-JAK3 cells, 0.5 to 1 µM in the assay on Daudi cells, 0.001 to 0.05 µM on JAK3 and 0.001 to 0.05 µM against BTK. On JAK3, the “inhibitory activity on JAK3 (in words)” value is “excellent inhibitory activity”. Moreover, the “inhibitory activity on BTK (in words)” value against BTK is recorded as “excellent inhibitory activity”.
For the compound `C=CC(=O)N1CCC[C@@H](n2nc(-c3ccc(NC(=O)c4ccc(C(C)(C)C)cc4)c4c3OCO4)c3c(N)ncnc32)C1` [I-11, (R)-N-(7-(1-(1-acryloylpiperidin-3)-4-amino-1H-pyrazolo[3,4-d]pyrimidin-3-)benzo[d][1,3]dioxoheterocyclopenten-4)-4-tert-butylbenzamide], the half-maximal inhibitory concentration (IC50) in the assay with BaF3-TEL-JAK3 cells was in the range of 0.01 to 0.5 µM; with Daudi cells, 0.01 to 0.5 µM; at JAK3, 0.001 to 0.05 µM; against BTK, 0.001 to 0.05 µM. On JAK3, the “inhibitory activity on JAK3 (in words)” value is reported as “excellent inhibitory activity”. The “inhibitory activity on BTK (in words)” value on BTK is given as “excellent inhibitory activity”.
As to `C=CC(=O)N1CCC[C@@H](n2nc(-c3ccc(NC(=O)c4ccc[nH]4)c4c3OCO4)c3c(N)ncnc32)C1` [I-3, (R)-N-(7-(1-(1-acryloylpiperidin-3-yl)-4-amino-1H-pyrazolo[3,4d]pyrimidin-3-)benzo[d][1,3]dioxoheterocyclopenten-4)-1H-pyrrole-2-formamide], the concentration for half-maximal inhibition (IC50) is 0.5 to 1 µM in the assay on BaF3-TEL-JAK3 cells, 0.5 to 1 µM in the assay on Daudi cells, 0.05 to 0.5 µM against JAK3 and 0.001 to 0.05 µM against BTK.
Consider `C=CC(=O)N1CCC[C@@H](n2nc(-c3ccc(NC(=O)c4ccccn4)c4c3OCO4)c3c(N)ncnc32)C1` [I-4, (R)-N-(7-(1-(1-acryloylpiperidin-3)-4-amino-1H-pyrazolo[3,4-d]pyrimidin-3-yl)benzo[d][1,3]dioxoheterocyclopenten-4)pyridine-2-formamide], for which the IC50 fell in the range of 0.5 to 1 µM in the assay on BaF3-TEL-JAK3 cells, 0.5 to 1 µM with Daudi cells, 0.05 to 0.5 µM at JAK3 and 0.001 to 0.05 µM against BTK.
In the case of `C=CC(=O)N1CCC[C@@H](n2cc(-c3ccc(NC(=O)c4cccc5ccccc45)c4c3OCO4)c3c(N)ncnc32)C1` [I-21, (R)-N-(7-(7-(1-acryloylpiperidin-3-yl)-4-amino-7H-pyrrolo[2,3-d]pyrimidin-5-yl)benzo[d][1,3]dioxoheterocyclopenten-4-)-1-naphthalenecarboxamide], the 50% inhibitory concentration (IC50) in the assay with BaF3-TEL-JAK3 cells lay within 0.5 to 1 µM; in the assay on Daudi cells, 0.5 to 1 µM; at JAK3, 0.001 to 0.05 µM; against BTK it was 0.001 to 0.05 µM.

As usually defined, the IC50 is the concentration needed to halve the response being measured.
